Measurements as given in patent publication US6323240A, “4-phenyl-4-oxo-butanoic acid derivatives with kynurenine-3-hydroxylase inhibiting activity” (Pharmacia & Upjohn S.p.A., priority 1995, dated 2001).

Assays:
kynurenine-3-hydroxylase [1] = target: T1, kynurenine-3-hydroxylase (Rattus norvegicus, UniProt O88867); assay: Kynurenine-3-hydroxylase assay in the rat brain (conversion of L-kynurenine to L-3-hydroxykynurenine, HPLC with coulometric detection); assay type: biochemical; settings: rat brain homogenate; 50 μM L-kynurenine; pH 7.5; 60 min
T1 sequence (O88867 whole entry): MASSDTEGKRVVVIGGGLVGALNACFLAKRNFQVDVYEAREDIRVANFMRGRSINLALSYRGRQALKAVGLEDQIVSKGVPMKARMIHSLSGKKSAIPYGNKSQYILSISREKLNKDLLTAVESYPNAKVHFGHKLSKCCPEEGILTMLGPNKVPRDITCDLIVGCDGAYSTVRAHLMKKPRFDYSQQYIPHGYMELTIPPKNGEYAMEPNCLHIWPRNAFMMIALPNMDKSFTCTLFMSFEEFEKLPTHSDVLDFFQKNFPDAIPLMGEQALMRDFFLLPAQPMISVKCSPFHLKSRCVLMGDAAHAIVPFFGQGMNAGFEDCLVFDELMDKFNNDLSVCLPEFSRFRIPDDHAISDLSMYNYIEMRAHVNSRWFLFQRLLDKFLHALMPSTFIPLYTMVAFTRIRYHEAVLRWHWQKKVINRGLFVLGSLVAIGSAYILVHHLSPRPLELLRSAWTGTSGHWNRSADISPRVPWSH
Experimental: Kynurenine-3-hydroxylase Assay in the Rat Brain
Brain was homogenized in ice-cold 0.32 M sucrose and centrifuged at 12000×g for 30 min at 4° C. The pellet was washed three times with 0.32 M sucrose by centrifugation and suspended in 0.14 M KCl in 20 mM K-phosphate buffer at pH 7 (1 g tissue in 2 ml buffer).
The reaction mixture contained: 75 μl of suspended homogenate; 100 μl of substrate solution containing 50 mM K-phosphate buffer pH 7.5, 2 mM MgCl2, 0.4 mM NADPH, 50 μM L-kynurenine (final concentration), and 25 μl of different concentrations of inhibitor solutions. The reaction was stopped by addition of 200 μl of 1 M HClO4 after 60 min incubation. L-3-hydroxykynurenine formed was quantified by HPLC with coulometric detection at a working voltage of +0.2 V. The column was a 10 cm C18 reversed phase (3 μm. The mobile phase consisted of 950 ml distilled water, 20 ml acetonitrile, 9 ml triethylamine, 5.9 ml phosphoric acid, 100 mg sodium EDTA and 1.5 g heptanesulfonic acid. The flow rate was 1 ml/min.

kynurenine-3-hydroxylase [2] = target: T1, kynurenine-3-hydroxylase; assay: Kynurenine-3-hydroxylase assay in the rat liver (radiometric, tritiated water release, rat liver mitochondrial extract); assay type: biochemical; design: Rat liver mitochondrial extract was used as enzymatic preparation for this assay; from tissue; host or cells: rat liver mitochondrial extract; settings: 0.025 mM L-kynurenine, pH 8.1, 37° C., 30 min
Experimental: Kynurenine-3-hydroxylase Assay in the Rat Liver
The assay for kynurenine 3-hydroxylase was based on the enzymatic synthesis of tritiated water during the hydroxylation reaction. Radiolabeled water was quantified following selective adsorption of the isotopic substrate and its metabolite with activated charcoal.
Rat liver mitochondrial extract was used as enzymatic preparation for this assay.
The assay for kynurenine 3-hydroxylase activity was carried out at 37° C. for a time of 30 min. The reaction mixture of a total volume of […] was constituted of […] of suspended extract, 100 mM Tris/Cl^- buffer pH 8.1, 10 mM EDTA, 100 mM Kcl, 0.8 mM NADPH, 0.025 mM L-kynurenine, […] L-(3,5-^3 H)Kynurenine (10 Ci/mmol) and […] of different concentration of inhibitor solutions. After the incubation the reaction was terminated by the addition of 1 mL of 7.5% (w/v) activated charcoal, vortexed and centrifugated for 7 min.
A […] aliquot of supernatant was counted by scintillation spectroscopy in 5 ml of liquid scintillation.

[3] = test system: N-methyl-D-aspartate (NMDA) receptor; settings: cited from earlier work
neuronal cell cultures = settings: relatively low concentrations; prolonged period of time or in combination with glutamate; cited from earlier work
CNS = settings: cited from earlier work
[4] = test system: ionotropic excitatory aminoacid receptors; settings: preferentially acting at the glycine co-agonist site of the NMDA receptor; cited from earlier work
[5] = test system: excitotoxic neuronal damage evoked by QUIN; settings: co-injected with QUIN; cited from earlier work

Row | Structure (SMILES) | IC50 (kynurenine-3-hydroxylase [1]) | IC50 (kynurenine-3-hydroxylase [2]) | also measured
1 | O=C(O)CCC(=O)c1ccc(F)c(F)c1 [PNU 157720, 4-(3',4'-difluorophenyl)-4-oxo-butanoic acid] | 3.7 µM | 18.3 µM | –
2 | O=C(O)C(O)C(Cc1ccccc1)C(=O)c1ccc(Cl)c(Cl)c1 (centres unmarked) [PNU 167536, 2-hydroxy-3-benzyl-4-(3',4'-dichlorophenyl)-4-oxo-butanoic acid] | – | 61.6 µM | –
3 | CC(CC(=O)O)C(=O)c1ccc(Cl)c(Cl)c1 (racemic) [PNU 161243, (R,S)-3-methyl-4-(3',4'-dichlorophenyl)-4-oxo-butanoic acid] | 14.3 µM | – | –
4 | COC(=O)C(CC(=O)c1ccc(Cl)c(Cl)c1)Cc1ccccc1 (racemic) [PNU 167531, (R,S)-Methyl-2-benzyl-4-(3',4'-dichlorophenyl)-4-oxo-butanoate] | – | 1.9 µM | –
5 | COC(CC(=O)c1ccc(F)c(F)c1)C(=O)O (racemic) [PNU 158380, (R,S)-2-methoxy-4-(3',4'-difluorophenyl)-4-oxo-butanoic acid] | 12.6 µM | 42.4 µM | –
6 | O=C(O)c1cccnc1C(=O)O [QUIN, quinolinic acid] | – | – | agonism at the NMDA receptor [3]: highly selective agonist; neurotoxicity in neuronal cell cultures (neuronal cell cultures): neurotoxic; in vivo lesions and convulsions (CNS; in vivo): convulsions and axon sparing lesions; action when injected in the CNS (CNS): neurotoxin
7 | COC(=O)CCC(=O)c1ccc(Cl)c(Cl)c1 [PNU 158381, Methyl 4-(3',4'-dichlorophenyl)-4-oxo-butanoate] | – | 5.7 µM | –
8 | O=C(CC(O)C(=O)O)c1cccc(Cl)c1 (racemic) [PNU 158789, (R,S)-2-hydroxy-4-(3'-chlorophenyl)-4-oxo-butanoic acid] | 0.45 µM | 1.8 µM | –
9 | CC(CC(=O)c1ccc(F)c(F)c1)C(=O)O (racemic) [PNU 157952, (R,S)-2-methyl-4-(3',4'-difluorophenyl)-4-oxo-butanoic acid] | 3.9 µM | 55.1 µM | –
10 | O=C(CC(Cl)C(=O)O)c1ccc(Cl)c(Cl)c1 (racemic) [PNU 158781, (R,S)-2-chloro-4-(3',4'-dichlorophenyl)-4-oxo-butanoic acid] | – | 13.3 µM | –
11 | O=C(O)CCC(=O)c1ccc(Cl)c(Cl)c1 [PNU 156588, 4-(3',4'-dichlorophenyl)-4-oxo-butanoic acid] | 0.9 µM | 3.9 µM | –
12 | O=C(O)CC(C(=O)c1ccc(Cl)c(Cl)c1)c1ccccc1 (racemic) [PNU 167541, (R,S)-3-phenyl-4-(3',4'-dichlorophenyl)-4-oxo-butanoic acid] | – | 55 µM | –
13 | O=C(O)c1cc(=O)c2ccccc2[nH]1 [KYNA, kynurenic acid] | – | – | antagonism of the ionotropic excitatory aminoacid receptors [4]: broad spectrum antagonist; action when injected in the CNS (CNS): neuroprotective agent; prevention of QUIN-evoked excitotoxic neuronal damage [5]: able to prevent the excitotoxic neuronal damage
14 | COC(=O)C(O)CC(=O)c1ccc(Cl)c(Cl)c1 (racemic) [PNU 161211, Methyl(R,S)-2-hydroxy-4-(3',4'-dichlorophenyl)-4-oxo-butanoate] | 3.1 µM | 5.6 µM | –
15 | C=C(CC(=O)c1ccc(Cl)c(Cl)c1)C(=O)O [PNU 158432, 2-methyliden-4-(3',4'-dichlorophenyl)-4-oxo-butanoic acid] | – | 36 µM | –
